For one compound, logP results are on record in ChEMBL document CHEMBL1150267, “Synthesis and screening of mono- and di-aryl technetium and rhenium metallocarboranes. A new class of probes for the estrogen receptor” (J Med Chem, 2008).

The structures appear in SMILES notation.

A short description of this data set: physchem. Particulars: octanol/water.

Description: Lipophilicity, log P of the compound

Regarding `c1ccc(Oc2ccccc2)cc1`, the logP (usually a log measure of how a compound divides between an organic and an aqueous phase) is 4.2.
